Data reported in ChEMBL document CHEMBL1144499, “Complanadines C and D, new dimeric alkaloids from Lycopodium complanatum” (Bioorg Med Chem, 2007).
Converted amounts (≈) assume the structure as drawn. The source made the active and inactive calls. The calls are words filed in the database; no cut-off is given here.

Columns and labels:
1321-N1 = experiment: Enhancement of NGF mRNA expression in human 1321N1 cells; assay type: functional, cell-based
L1210 = experiment: Cytotoxicity against mouse L1210 cells; assay type: cell-based
Cryptococcus neoformans = experiment: Antimicrobial activity against Cryptococcus neoformans; assay type: functional
Aspergillus niger = experiment: Antimicrobial activity against Aspergillus niger; assay type: functional

MIC (Cryptococcus neoformans): 0.26 µg/mL (≈ 0.534 µM) | MIC (Aspergillus niger): 4.16 µg/mL (≈ 8.55 µM)
SMILES: C[C@@H]1C[C@H]2CC3=C(CC[C@H](c4cnc5c(c4)[C@@]46C[C@H](C)C[C@@H](C5)[C@H]4CCCN6)N3)[C@]3(C1)NCCC[C@H]23 [COMPLANADINE D]
Activity (1321-N1): Active | IC50 (L1210): 7 µg/mL (≈ 14.4 µM)
